PubChem BioAssay (NCI)
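96-well plates; 48 h exposure; 5 concentrations. Endpoints by linear interpolation between flanking doses. Not reached: highest tested concentration assigned. Definition used: TGI = concentration required for complete inhibition of growth.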

Columns and labels:
Test in all cases: growth of human tumour cells (NCI), 48 h
786-0 renal = system: 786-0 renal
A549 NSCLC = system: A549 NSCLC
BT-549 breast = system: BT-549 breast
CAKI-1 renal = system: CAKI-1 renal
CCRF-CEM leukemia = system: CCRF-CEM leukemia
COLO 205 colon = system: COLO 205 colon
DU-145 prostate = system: DU-145 prostate
EKVX NSCLC = system: EKVX NSCLC
HCC-2998 colon = system: HCC-2998 colon
HCT-116 colon = system: HCT-116 colon
HCT-15 colon = system: HCT-15 colon
HL-60(TB) leukemia = system: HL-60(TB) leukemia
HOP-62 NSCLC = system: HOP-62 NSCLC
HS 578T breast = system: HS 578T breast
HT29 colon = system: HT29 colon
IGROV1 ovarian = system: IGROV1 ovarian
K-562 leukemia = system: K-562 leukemia
KM12 colon = system: KM12 colon
LOX IMVI melanoma = system: LOX IMVI melanoma
M14 melanoma = system: M14 melanoma
MALME-3M melanoma = system: MALME-3M melanoma
MCF7 breast = system: MCF7 breast
MDA-MB-231 breast = system: MDA-MB-231 breast
MDA-MB-435 = system: MDA-MB-435
MDA-N = system: MDA-N
MOLT-4 leukemia = system: MOLT-4 leukemia
NCI-H226 lung = system: NCI-H226 lung
NCI-H23 lung = system: NCI-H23 lung
NCI-H460 lung = system: NCI-H460 lung
NCI-H522 lung = system: NCI-H522 lung
NCI/ADR-RES ovarian = system: NCI/ADR-RES ovarian
OVCAR-3 ovarian = system: OVCAR-3 ovarian
OVCAR-4 ovarian = system: OVCAR-4 ovarian
OVCAR-8 ovarian = system: OVCAR-8 ovarian
PC-3 prostate = system: PC-3 prostate
RPMI-8226 leukemia = system: RPMI-8226 leukemia
RXF 393 renal = system: RXF 393 renal
SF-268 CNS = system: SF-268 CNS
SF-295 CNS = system: SF-295 CNS
SF-539 CNS = system: SF-539 CNS
SK-MEL-2 melanoma = system: SK-MEL-2 melanoma
SK-MEL-28 melanoma = system: SK-MEL-28 melanoma
SK-MEL-5 melanoma = system: SK-MEL-5 melanoma
SK-OV-3 ovarian = system: SK-OV-3 ovarian
SN12C renal = system: SN12C renal
SNB-19 CNS = system: SNB-19 CNS
SNB-75 CNS = system: SNB-75 CNS
SR leukemia = system: SR leukemia
SW-620 colon = system: SW-620 colon
T-47D breast = system: T-47D breast
TK-10 renal = system: TK-10 renal
U251 CNS = system: U251 CNS
UACC-257 melanoma = system: UACC-257 melanoma
UACC-62 melanoma = system: UACC-62 melanoma
UO-31 renal = system: UO-31 renal
A498 renal = system: A498 renal
ACHN renal = system: ACHN renal
HOP-92 NSCLC = system: HOP-92 NSCLC
OVCAR-5 ovarian = system: OVCAR-5 ovarian

Measured: TGI

CN1C2CC(=O)CC1[C@@H]1OC(c3ccccc3)O[C@H]21 (some centres undefined)
not listed: A498 renal | ACHN renal | HOP-92 NSCLC | OVCAR-5 ovarian
> 100 µM: all other assays above

COC(=O)C(C)Sc1nc2cc(Cl)ccc2s1 (centres undefined)
not listed: HL-60(TB) leukemia | LOX IMVI melanoma | SK-MEL-2 melanoma | SR leukemia | TK-10 renal
> 100 µM: all other assays above
